Test results taken from patent publication US10155732B2, “Ribonucleotide reductase inhibitors and methods of use” (City of Hope, priority 2012, dated 2018).
Where “and” joins values, the source holds several entries; their conditions need not be identical. Equal values may be shown once. Read-outs that look alike come from different tables or passages of the source.

Assays:
[1] = molecular target: recombinant RRM1/RRM2 complex (Homo sapiens (Human), UniProt P31350); assay: in vitro holoenzyme-based RR assay, [3H]CDP reduction by HPLC; format: biochemical; conditions: for inhibition of native RRM1/RRM2 activity in vitro screen: screen of top 80 virtual screening candidates
Chain of recombinant RRM1/RRM2 complex (P31350 whole entry, one chain of several): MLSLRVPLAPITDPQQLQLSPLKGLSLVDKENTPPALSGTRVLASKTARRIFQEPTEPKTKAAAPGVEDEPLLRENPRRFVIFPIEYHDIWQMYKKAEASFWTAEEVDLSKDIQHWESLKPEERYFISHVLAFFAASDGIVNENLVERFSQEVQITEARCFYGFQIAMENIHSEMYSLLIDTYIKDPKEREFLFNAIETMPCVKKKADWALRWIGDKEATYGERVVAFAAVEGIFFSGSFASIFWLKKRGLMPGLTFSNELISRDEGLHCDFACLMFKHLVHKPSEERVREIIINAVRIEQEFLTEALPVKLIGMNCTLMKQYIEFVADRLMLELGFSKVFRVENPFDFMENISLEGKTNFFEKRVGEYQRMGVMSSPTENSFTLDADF
Description: Compounds that docked into the ligand binding pocket were identified using the TRIPOS FlexX docking tool and ranked using an embedded consensus docking score. […] The assay utilized recombinant RRM1/RRM2 or RRM1/RRM2 complex and measured [^3H]CDP reduction activity (i.e., CDP to dCDP) by HPLC.

[2] = tested on: human leukemia REH cells; assay: MTT cytotoxicity assay; format: cell-based; conditions: 72 hours
Description: (§1) The in vitro cytotoxicity of COH4 and COH20 towards human leukemia REH and MOLT-4 cells, human prostate cancer LNCaP cells, human oropharyngeal cancer KB cells, and normal fibroblast NHDF cells was evaluated using an MTT assay. 5,000 cells were seeded on six-well plates for 72 hours with various concentrations of drug. COH20 was cytotoxic to the cancer cell lines at less than 10 μM, while causing less cytotoxicity to normal cells than 3-AP.

[3] = tested on: human oropharyngeal cancer KB cells; assay: MTT cytotoxicity assay; format: cell-based; conditions: 72 hours
Description: as §1

[4] = tested on: human prostate cancer LNCaP cells; assay: MTT cytotoxicity assay; format: cell-based; conditions: 72 hours
Description: as §1

[5] = tested on: human leukemia MOLT-4 cells; assay: MTT cytotoxicity assay; format: cell-based
Description: as §1
(§2) The in vitro cytotoxicity of COH29 towards a panel of human cancer cell lines was tested using the MTT assay described above.

[6] = tested on: normal fibroblast NHDF cells; assay: MTT cytotoxicity assay; format: cell-based, human; conditions: 72 hours
Description: as §1

[7] = tested on: KBMDR; assay: in vitro cytotoxicity assay, multidrug resistant clone; format: cell-based, human
[8] = tested on: Leukemia CCRF-CEM; assay: MTT cytotoxicity assay; format: cell-based; conditions: Homo sapiens
Description: as §1, §2

[9] = tested on: Leukemia SUP B15; assay: MTT cytotoxicity assay; format: cell-based; conditions: Homo sapiens
Description: as §1, §2

[10] = tested on: Ovarian Cancer OV 90; assay: MTT cytotoxicity assay; format: cell-based; conditions: Homo sapiens
Description: as §1, §2

[11] = tested on: NCI 60 human cancer cell lines; assay: MTT cytotoxicity assay, panel of human cancer cell lines; format: cell-based
Description: as §1, §2

[12] = single-dose pharmacokinetic evaluation in rats; format: in vivo, rat
Description: COH20 was injected into three male rats at 1 mg/kg for single-dose pharmacokinetic evaluation. […] More detailed pharmacokinetic studies will be performed with various dosages of COH20 to establish parameters such as clearance, bioavailability, and tissue/plasma partition coefficients.
Pharmacokinetic evaluation was performed on COH29 using the same techniques, with COH29 administered at a dosage of 25 mg/kg.

[13] = tested on: intracellular RR; assay: intracellular RR activity in lysates of treated KB cells; format: cell-based, human; conditions: KB cells treated with 10 μM
Description: To confirm that the ability of COH20 to inhibit RR activity was not specific to recombinant RR, an assay was performed testing the effect of COH20 on intracellular RR. KB cells treated with 10 μM COH20 were lysed, and protein was extracted in a high salt buffer and passed through a G25 SEPHADEX® column to remove small molecules such as dNTP. The eluate was mixed with [^3H]CDP in reaction buffer to monitor RR activity. Treatment with COH20 decreased intracellular RR activity by approximately 50% (FIG. 7).

[14] = tested on: KBHURs; assay: in vitro cytotoxicity assay, HU-resistant clone; format: cell-based, human; conditions: overexpresses RRM2
Description: as §1
In vitro cytotoxicity assays were repeated using KBHURs, an HU-resistant clone derived from KB cells that overexpresses RRM2. […] Similar experiments will be repeated using the gemcitabine resistant cell line KBGem, which also overexpresses RRM2.

[15] = tested on: REH, MOLT-4, LNCaP and KB cancer cell lines; assay: MTT cytotoxicity assay, cancer cell lines together; format: cell-based, human
Description: as §1

[16] = RR activity, Table 1, read-out: IC50 ± S.D.
[17] = Homo sapiens, MOLT-4, 72 hours, Table 3, read-out: IC50 MOLT-4
[18] = rats, 25 mg/kg, individual analysis 1-3

NC(=S)NN=Cc1ncccc1N [Compound 3-AP, 3-aminopyridine-2-carboxaldehyde thiosemicarbazone, reference compound]
IC50 [1, 16]: 1.2 ± 0.13 µM
IC50 ([2]; Homo sapiens, REH): 1.42 µM
IC50 ([3]; Homo sapiens, KB): 1.98 µM
IC50 ([4]; Homo sapiens, LNCaP): 1.75 µM
IC50 [5, 17]: 1.21 µM
IC50 ([6]; Homo sapiens, NHDF): 7.35 µM
concentration exhibiting cytotoxicity towards KBMDR cells [7]: 200 µM

O=C(Nc1nc(-c2ccc(O)c(O)c2)c(-c2ccccc2)s1)c1ccc(O)c(O)c1 [COH29]
IC50 [8]: 2800 nM
IC50 [9]: 5 µM
IC50 [10]: 2600 nM
IC50 ([5]; Homo sapiens, MOLT-4, Table 4, read-out: IC50 Leukemia MOLT-4): 2.5 µM
GI50 ([11]; except HT29, UACC-257, NCI/ADR-RES, CAKI-1): < 10 µM
IC50 ([11]; except colon cancer HT29, melanoma UACC-257, ovarian cancer NCI/ADR-RES, renal cancer CAKI-1, read-out: IC50 in all cell types tested): < 10 µM
AUC ([12]; rat, plasma, intravenous, 25 mg/kg, rats, 25 mg/kg, Avg. of triplicate, read-out: AUC): 3480 ng·h/mL
Cmax ([12]; rat, plasma, intravenous, 25 mg/kg, rats, 25 mg/kg, Avg. of triplicate, read-out: Cmax): 27600 ng/mL
half-life ([12]; rat, plasma, intravenous, 25 mg/kg, rats, 25 mg/kg, Avg. of triplicate, read-out: T1/2 (converted)): 160 min
Vd ([12]; rat, plasma, intravenous, 25 mg/kg, rats, 25 mg/kg, Avg. of triplicate, read-out: Vss): 0.804 L/kg
AUC ([12]; rat, plasma, intravenous, 25 mg/kg, rats, 25 mg/kg, individual analysis 1-3, read-out: AUC): 3670 ng·h/mL
Cmax ([12]; rat, plasma, intravenous, 25 mg/kg, rats, 25 mg/kg, individual analysis 1-3, read-out: Cmax): 31300 ng/mL
clearance ([12]; rat, plasma, intravenous, 25 mg/kg, rats, Avg. of triplicate): 122 mL/min/kg
clearance ([12]; rat, plasma, intravenous, 25 mg/kg, rats, individual analysis 1-3): 114 mL/min/kg
Tmax ([12]; rat, plasma, intravenous, rats, 25 mg/kg, individual analysis 1-3): 1.8 min
AUC [12, 18]: 2861 ng·h/mL and 3918 ng·h/mL
CL [12, 18]: 145.6 mL/min/kg and 106.4 mL/min/kg
Cmax [12, 18]: 26000 ng/mL and 25600 ng/mL
T1/2 [12, 18]: 24 min and 456 min and 1.8 min
Vss [12, 18]: 1185 mL/kg and 576 mL/kg and 653 mL/kg
AUC dose dependence ([12]; rats, i.v. bolus): dose-dependent manner

O=C1C(Cl)=C(Nc2ccc(S(=O)(=O)Nc3ccccn3)cc2)C(=O)c2ccccc21 [NSC #45382]
inhibition of native RRM1/RRM2 activity in vitro screen [1]: ≥ 80%

O=C(Nc1nc(-c2ccc(O)c(O)c2)cs1)c1ccc(O)c(O)c1 [COH20]
inhibition of the recombinant RRM1/RRM2 complex in vitro [1]: 90.2%
IC50 [1, 16]: 9.3 ± 2.3 µM
IC50 ([1]; Table 2, no added Fe, read-out: IC50 ± S.D. RRM1/RRM2): 9.31 ± 2.3 µM
decrease of intracellular RR activity [13]: approximately 50%
IC50 ([2]; Homo sapiens, REH): 2.54 µM
IC50 ([3]; Homo sapiens, KB): 9.25 µM
IC50 ([4]; Homo sapiens, LNCaP): 8.49 µM
IC50 [5, 17]: 5.26 µM
IC50 ([6]; Homo sapiens, NHDF): 82.8 µM
cytotoxicity to KBHURs (in words) [14]: cytotoxic to KBHURs at significantly lower concentrations than the other RR inhibitors tested
concentration exhibiting cytotoxicity towards KBMDR cells [7]: 80 µM
cytotoxicity to KBMDR (in words) ([7]; overexpresses the MDR pump): at lower concentrations than 3-AP or HU
half-life ([12]; male, rat, plasma, other: injected, 1 mg/kg, three male rats, 1 mg/kg, plasma, read-out: terminal half-life (T1/2) (converted)): ~330 min
concentration cytotoxic / growth inhibiting to the cancer cell lines [15]: less than 10 μM

NC(=O)NO [HU, hydroxyurea, reference compound]
IC50 [1, 16]: 148 ± 7.34 µM
IC50 [2]: 32.8 µM
IC50 [3]: 300 µM
IC50 [4]: 280 µM
IC50 ([5]; 72 hours, Table 3, read-out: IC50 MOLT-4): 165 µM
IC50 [6]: > 1000 µM
concentration exhibiting cytotoxicity towards KBMDR cells [7]: > 1000 µM

Cl.O=c1oc2ccccc2c(O)c1C=Nc1nc(-c2ccc(O)c(O)c2)cs1 [NSC #659390]
inhibition of native RRM1/RRM2 activity in vitro screen [1]: ≥ 80%

O=C(Nc1nc(-c2ccc(O)c(O)c2)cs1)c1ccccc1 [COH4]
IC50 [1, 16]: 15.3 ± 1.8 µM
IC50 ([2]; Homo sapiens, REH): 20.6 µM
IC50 ([3]; Homo sapiens, KB): 30.6 µM
IC50 ([4]; Homo sapiens, LNCaP): 23 µM
IC50 [5, 17]: 11.8 µM
IC50 ([6]; Homo sapiens, NHDF): 52.6 µM
